The source of these data is article PMC4257840 (Journal of Medicinal Chemistry, 2014).

Series [1] concerns the target T1, human recombinant caspase 9 (Homo sapiens, UniProt P55211).
T1 construct: host or cells: E. coli
Nature of the series: Protease counter-screening: Caspase 9. The class given is biochemical. The protocol: (§1) Appendix 7. Protease Counter -Screening
(§2) Protease counter-screeni ng was performed using the methods described below. Initial screening was conducted in duplicate using a single test substance concentration of 10 µ M .
(§3) Additional assays were conducted in replicate for selected pairin gs of test s ubstance and enz yme in order to enable the determination of IC50 values using conventional procedures.
(§4) Determination of K i was made using the Batch K i program (Biokin Ltd, Pullman, WA) to derive values from the Morrison equation: […]
(§5) Where [E ] is the active enz yme concentration, Kiapp is the apparent inhibition const ant, v 0 is the control velocit y in the absence of inhibitors, vb is the background velocity, v is the initial reaction velocit y in the presence of inhibitor, and I is the inhibitor concentration.Thence:
(§6) Where [S ] is the substrate concentration and KM is the Michealis constant. […]
(§7) by addition of 50 µM Ac-DEVD-AMC for another 60 min incubation period. The amount of AMC formed was determined fluorimetricall y (excitation 360 nm/emission 465 nm). […]
(§8) by addition of 25 µM Ac-LEH D-A FC for another 60 min incubation period. The amount of amino-4- trifluorometh ylcoumarin (AFC) formed determined fluorimetrically (400nm/ 510nm).
(§9) Cathepsin C: Cathepsin C from bovine spleen was used as the source of enz yme. […] T he amount of AMC product formed was read spectrofluorimetrically
On the technique in general: The purpose of a counterscreen is to sort out artefacts and off-target activity.

The target of series [2] is T2, Factor Xa from human plasma (Homo sapiens, UniProt P00742).
T2 construct: containing 0.4 nM Factor Xa from human plasma; from tissue; host or cells: human plasma
T2 sequence (P00742 235-488 limits assumed): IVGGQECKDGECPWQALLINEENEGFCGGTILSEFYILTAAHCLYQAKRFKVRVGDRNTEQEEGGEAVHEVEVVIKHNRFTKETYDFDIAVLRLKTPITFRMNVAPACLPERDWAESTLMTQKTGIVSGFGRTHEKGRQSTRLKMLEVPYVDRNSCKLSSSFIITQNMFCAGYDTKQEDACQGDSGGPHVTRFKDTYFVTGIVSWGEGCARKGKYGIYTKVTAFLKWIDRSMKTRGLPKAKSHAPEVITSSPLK
T2 sequence (P00742 41-179 limits assumed): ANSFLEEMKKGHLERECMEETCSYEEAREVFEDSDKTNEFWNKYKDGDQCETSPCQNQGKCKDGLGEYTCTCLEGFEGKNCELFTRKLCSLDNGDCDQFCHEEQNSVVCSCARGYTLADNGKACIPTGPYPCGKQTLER
The series is described as follows: Protease counter-screening: Factor Xa. The class given is biochemical. As to the method: as §1, §2, §3, §4, §5, §6
Test compound or vehicle was pre- incubated with 600 […]
The reaction was […]
initiated by addition of 1 µM N-CH3-SO2-D-FGR-pNA for another 120 min incubation period.
The amount of pNA formed was read spectrophotometricall y at 405 nm.
Factor Xa: Test compound or vehicle was pre -incubated for 15 min at 25 °C in modified 50 mM Tris-HCl buffer pH 7.6 containing 0.4 nM Factor Xa from human plasma. The reaction was initiated by addition of 0.3 mM N-a-Z-D-RGR-pNA for another 60 min incubation period. […]

In series [3] the target is T3, Cathepsin C from bovine spleen (Bos taurus, UniProt Q3ZCJ8).
T3 construct: Cathepsin C from bovine spleen was used as the source of; from tissue; host or cells: bovine spleen
T3 sequence (Q3ZCJ8 25-463): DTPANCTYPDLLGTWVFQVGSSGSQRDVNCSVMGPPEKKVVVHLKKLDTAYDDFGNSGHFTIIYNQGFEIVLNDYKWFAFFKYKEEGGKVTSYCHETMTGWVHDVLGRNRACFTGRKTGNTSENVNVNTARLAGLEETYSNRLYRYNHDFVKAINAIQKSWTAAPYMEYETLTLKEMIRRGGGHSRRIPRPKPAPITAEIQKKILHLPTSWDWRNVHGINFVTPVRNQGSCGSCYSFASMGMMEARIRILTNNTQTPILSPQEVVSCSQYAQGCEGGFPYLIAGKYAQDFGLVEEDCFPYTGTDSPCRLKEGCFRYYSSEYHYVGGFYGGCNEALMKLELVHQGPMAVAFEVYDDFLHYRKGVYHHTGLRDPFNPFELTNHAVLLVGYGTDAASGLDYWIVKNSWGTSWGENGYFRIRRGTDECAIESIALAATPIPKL
The series is described as follows: Protease counter-screening: Cathepsin C. Type of series: biochemical. The protocol: as §1, §2, §3, §4, §5, §6, §7, §8, §9

Series [4] addresses T4, Factor VIIa from human plasma (Homo sapiens, UniProt P08709).
T4 construct: incubated with 25 nM Factor VIIa from; from tissue; host or cells: human plasma
Nature of the series: Protease counter-screening: Factor VIIa. The class given is biochemical. As to the method: as §1, §2, §3, §4, §5, §6
Test compound or vehicle was pre- incubated with 600
Factor VIIa: Test compound or vehicle was pre- incubated with 25 nM Factor VIIa from human plasma in modified 50 mM Tris-HCl buffer pH 7.6 for 15 min at 25 °C. The reaction was initiated by addition of 1 µM N-CH3-SO2-D-FGR-pNA for another 120 min incubation period.
The amount of pNA formed was read spectrophotometricall y at 405 nm. […]

Series [5] is described as follows: Plasma protein binding, Rapid Equilibrium Dialysis. Type of series: in vitro ADME. The note with it: both sexes, Sprague Dawley, plasma (EDTA K2, pooled), rat plasma, 4 h at 37 °C, read-out: PPB (converted). The protocol: Appendix 2. Pharmaco kinetics an d P l a s ma Protein Binding […]
Plasma Protein Binding Assay. PPB was determined with a Rapid Equilibrium Dialysis device using 8 kDa molecular weight cut-off inserts (Fisher Scientific UK Ltd, Leicest ershire, UK) as described b y the manufacturer. R at (Sprague Dawl e y strain) plasma EDTA K2 (mixed gender, pooled, SeraLab, West Sussex, UK) was thawed and centrifuged at 13,000 x g for 10 min to remove precipitates before being spiked with compounds (5 µM). The concentrations of compounds in the plasma and buffer chambers were determined b y LC -MS-MS (AB Sciex 3200 QTrap) anal ysis after 4 h incubation at 37 °C. Binding was calculated from the concentration percentage in both chambers as shown below. Assays were p erfo rmed in replicate and the data
On the technique in general: In equilibrium dialysis free small molecules cross a membrane that holds back macromolecules.

For the next series, the target named is recombinant human Cat S (Homo sapiens, UniProt P25774). The series is described as follows: Cathepsin S inhibition assay. The class given is biochemical. The settings on record: Table S1 counter-screening; read-out: Cathepsin S IC50.
Chain of recombinant human Cat S (P25774 115-331): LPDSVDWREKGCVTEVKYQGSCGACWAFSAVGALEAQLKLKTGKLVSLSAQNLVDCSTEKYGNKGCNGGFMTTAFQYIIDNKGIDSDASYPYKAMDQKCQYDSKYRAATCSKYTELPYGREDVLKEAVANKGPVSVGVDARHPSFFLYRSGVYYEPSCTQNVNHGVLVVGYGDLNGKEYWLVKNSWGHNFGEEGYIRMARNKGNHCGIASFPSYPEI
A short description of series [6]: Measurement of LogD7.4 (n-octanol/PBS shake). Type of series: physicochemical. The note with it: single determination, n-octanol/PBS pH 7.4; read-out: Log D7.4. The protocol: Appendix 4. Measurement of LogD7.4
Test compounds (~1 mg) were weighed into 2 mL HPLC vials. n- Octanol (0.7 mL), pre-saturated with 10 mM phosphate buffered saline pH7.4 (PBS), was added to each vial followed b y PBS (0. 7 mL), which had been pre-saturat ed with n-octanol. The mixtures were shaken for 90 min and then centrifuged for 10 min at 4,000 rpm. The upper organic l ayer (0.2 m L) and the aqueous la yer (0.5 mL) were removed from each vial and anal yz e d b y LC -MS. Mass spect ral anal ysis was used to confirm peak identity whilst the concentration of compound was assessed by a diode arra y det ecto r. The logD for each compound was calculated b y takin g th e lo g of its concentration ratio between the oct anol and aqueous la ye r s.Given the robustness of the assa y and the fact that the info rmation was us ed onl y for gen eral guid ance, thes e measu rements were based on singlicate det erminations.

T4 sequence (P08709 213-466 limits assumed): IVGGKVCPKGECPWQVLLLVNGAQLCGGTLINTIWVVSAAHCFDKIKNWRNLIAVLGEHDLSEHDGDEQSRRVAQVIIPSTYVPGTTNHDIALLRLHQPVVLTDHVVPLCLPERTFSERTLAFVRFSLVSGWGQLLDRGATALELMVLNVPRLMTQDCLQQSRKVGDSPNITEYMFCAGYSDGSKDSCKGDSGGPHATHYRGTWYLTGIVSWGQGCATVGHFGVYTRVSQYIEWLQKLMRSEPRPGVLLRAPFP
T4 sequence (P08709 61-212 limits assumed): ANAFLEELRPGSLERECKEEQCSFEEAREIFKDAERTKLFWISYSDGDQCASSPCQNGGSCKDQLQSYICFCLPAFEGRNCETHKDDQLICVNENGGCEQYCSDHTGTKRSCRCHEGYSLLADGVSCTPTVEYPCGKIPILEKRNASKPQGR
T1 sequence (P55211 1-315 limits assumed): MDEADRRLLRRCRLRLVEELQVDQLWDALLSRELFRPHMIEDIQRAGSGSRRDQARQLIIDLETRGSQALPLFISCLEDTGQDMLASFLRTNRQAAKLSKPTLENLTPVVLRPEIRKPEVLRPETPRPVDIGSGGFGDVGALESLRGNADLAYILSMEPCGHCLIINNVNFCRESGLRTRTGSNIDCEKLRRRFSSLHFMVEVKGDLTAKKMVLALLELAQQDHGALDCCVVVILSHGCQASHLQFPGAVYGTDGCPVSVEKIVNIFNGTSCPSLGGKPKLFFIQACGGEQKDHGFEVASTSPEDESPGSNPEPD
T1 sequence (P55211 331-416 limits assumed): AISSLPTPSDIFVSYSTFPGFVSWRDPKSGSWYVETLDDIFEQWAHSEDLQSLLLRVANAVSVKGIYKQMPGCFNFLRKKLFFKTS
Method for recombinant human Cat S: In all cases, for reactions involving inhibitors, the amount of reaction buffer was adjusted to 60 μL, the inhibitor added as a 10 μL aliquot, and incubated for 20 min with the enzyme prior to reaction start.

As a reminder, the inhibition is the drop in the measured response relative to a control, in per cent. By IC50 is commonly meant the midpoint of a concentration-inhibition curve. For `CC(C)[C@H](NC(=O)[C@H](C)NC(=O)[C@@H](NC(=O)c1ccccc1)C(C)(C)C)C(=O)C(=O)NCc1ccccc1` [Compound 38, N-{(S)-1-[(S)-1-((S)-1-Benzylaminooxalyl-2-methyl-propylcarbamoyl)-ethylcarbamoyl]-2,2-dimethyl-propyl}-benzamide], the inhibition at 10 µM in series [1] came out at 0%; in series [2] it was 7%; in series [3] it was 0%; in series [4], 1%. Further, the fraction unbound at 4 h, 5 µM in series [5] is 0.04. The IC50 on recombinant human Cat S amounted to 170 nM. Moreover, the logD at 1.5 h in series [6] was 3.2.
